The target of the experiment is Intestinal-type alkaline phosphatase (Homo sapiens, UniProt P09923). Briefly: human IAP activators, dose response, biochemical, luminescent, uHTS hits, set 2 (AID 488817).
Intestinal-type alkaline phosphatase, sequence (P09923 whole entry): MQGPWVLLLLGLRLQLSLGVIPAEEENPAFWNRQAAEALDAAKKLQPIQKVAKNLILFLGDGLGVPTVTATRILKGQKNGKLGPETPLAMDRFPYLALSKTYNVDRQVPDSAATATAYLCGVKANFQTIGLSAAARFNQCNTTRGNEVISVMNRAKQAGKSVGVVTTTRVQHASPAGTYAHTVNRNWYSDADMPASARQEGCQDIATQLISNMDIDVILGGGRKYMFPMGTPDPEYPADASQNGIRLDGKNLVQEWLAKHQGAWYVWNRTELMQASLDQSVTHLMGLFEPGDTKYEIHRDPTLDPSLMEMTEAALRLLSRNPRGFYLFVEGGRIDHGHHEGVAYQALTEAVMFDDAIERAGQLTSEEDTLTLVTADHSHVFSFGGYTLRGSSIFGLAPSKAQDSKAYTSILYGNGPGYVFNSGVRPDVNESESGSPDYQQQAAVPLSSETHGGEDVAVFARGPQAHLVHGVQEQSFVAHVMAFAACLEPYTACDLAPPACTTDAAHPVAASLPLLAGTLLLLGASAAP
In turn, `Cc1c(C(=O)NN=Cc2ccc(O)cc2O)[nH][nH]c1=O` returned a concentration for a half-maximal effect (EC50) of 11.3 µM.
As to `O=Nc1[nH]c(=O)c(CC(=O)c2ccccc2)nc1NO` [SMR000539633], the EC50 came out at 8.77 µM.
The result for `CCc1ccc(CN=Nc2ncnc3nc[nH]c23)cc1` [MLS000419199] reads 12.5 µM; that for `COc1cccc(C=NNC(=O)c2[nH][nH]c(=O)c2C)c1O` [N'-[(E)-(5-methoxy-6-oxidanylidene-cyclohexa-2,4-dien-1-ylidene)methyl]-4-methyl-5-oxidanylidene-1,4-dihydropyrazole-3-carbohydrazide], 9.07 µM.
In turn, `O=c1c2ccccc2nc(N=NCc2c(O)ccc3ccccc23)n1O` [SMR000145705] registered a concentration for a half-maximal effect (EC50) of 31 µM.
Under `Cc1cc(Br)ccc1SCC(=O)OCC(=O)C(C#N)c1nc2ccccc2[nH]1` (stereo not given) [2-[(4-bromo-2-methylphenyl)thio]acetic acid [3-cyano-3-(1,3-dihydrobenzimidazol-2-ylidene)-2-oxopropyl] ester] stands 27.5 µM; under `O=C(Nn1c(O)csc1=S)C(=O)Nn1c(O)csc1=S` [SMR000349781], 12.4 µM; under `CCOC(=O)c1c(C)[nH]c(C(=O)N/N=C/C2C=C([N+](=O)[O-])C=CC2=O)c1C` (stereo not given) [ethyl 2,4-dimethyl-5-[[[(E)-(3-nitro-6-oxocyclohexa-2,4-dien-1-ylidene)methyl]amino]carbamoyl]-1H-pyrrole-3-carboxylate], 11.4 µM.
`Cn1c(C(C#N)C(=O)c2ccc(Br)s2)nc2ccccc21` (stereo not given) [MLS001167394] showed a half-maximal effective concentration (EC50) of 60 µM.
The result for `C=c1[nH]n(-c2nc3ccccc3[nH]2)c(=O)c1=CN(C)C` [(4E)-2-(1H-benzimidazol-2-yl)-4-(dimethylaminomethylidene)-5-methyl-pyrazol-3-one] reads 23.2 µM.
